This is an account of results in US5122514A, “Psoriasis treatment” (Abbott Laboratories, priority 1991, dated 1992).

For this assay, the system named is psoriatic lesions on the patient's elbow, face and scalp. Description: Grading of psoriatic lesions in a patient after intravenous enalkiren. Further details: key to Right Elbow Lesions lesion severity, lesion ranking: 0: Complete clearing; 1: Minimal severity; 2: Moderately severe; 3: Severe; 4: More severe; key to Right Elbow Lesions erythema, lesion ranking / Face Lesions erythema, lesion ranking / Scalp Lesions erythema, lesion ranking: 0: None; 1: Very Mild: light red/pink; 2: Moderate: red but still not dark in texture; 3: Strong: very red, possibly dark; 4: Extreme: angry red. It is filed as in vivo, human. The protocol: A patient with documented psoriasis received 0.1 mg/kg of enalkiren (H-((beta,beta-dimethyl)-beta-Ala)-(4-OCH3)Phe-His amide of 2(S)-amino-1cyclohexyl-3(R), 4(S)-dihydroxy-6-methylheptane diacetic acid salt)(enalkiren 5.0 mg/5 ml (0.1% concentration), glacial acetic acid 0.91 mg/5ml and sodium chloride 43.9 mg/5 ml in water for injection) intravenously over a 5 minute period, followed 40 minutes later by administration of an additional 0.3 mg/kg of enalkiren intravenously over a 5 minute period. The psoriatic lesions on the patient's elbow, face and scalp were graded prior to treatment and 2, 4 and 7 days following treatment.

[1] abbreviates: +2 Days after 0.1 mg/kg then 0.3 mg/kg intravenously.
Setting [2] is: +4 Days after 0.1 mg/kg then 0.3 mg/kg intravenously.
The mark [3] stands for this setting: +7 Days after 0.1 mg/kg then 0.3 mg/kg intravenously.
Setting [4] is: Treatment Day (graded prior to treatment), person with psoriasis.

Counter-ions that a name gives are not always drawn.

`COc1ccc(C[C@H](NC(=O)CC(C)(C)N)C(=O)N[C@@H](Cc2cnc[nH]2)C(=O)N[C@@H](CC2CCCCC2)[C@@H](O)[C@@H](O)CC(C)C)cc1` [Enalkiren, H-((beta,beta-dimethyl)-beta-Ala)-(4-OCH3)Phe-His amide of 2(S)-amino-1cyclohexyl-3(R), 4(S)-dihydroxy-6-methylheptane diacetic acid salt]: under setting [1], the “Face Lesions erythema, lesion ranking” value turned out to be 3; the “Right Elbow Lesions erythema, lesion ranking” value (shortened to “Right Elbow Lesions erythema”) is 4; the “Right Elbow Lesions lesion severity, lesion ranking” value (“Right Elbow Lesions lesion severity” for short) stood at 4; the “Scalp Lesions erythema, lesion ranking” value is recorded as 4. Further, under setting [2], the “Face Lesions erythema, lesion ranking” value came to 2; the “Right Elbow Lesions erythema” value was 3; the “Right Elbow Lesions lesion severity” value turned out to be 3; the “Scalp Lesions erythema, lesion ranking” value came to 3. Also, under setting [3], the “Face Lesions erythema, lesion ranking” value came to 2; the “Right Elbow Lesions erythema” value came to 3; the “Right Elbow Lesions lesion severity” value is listed as 3; the “Scalp Lesions erythema, lesion ranking” value turned out to be 3. Further, under setting [4], the “Face Lesions erythema, lesion ranking” value is on record as 3; the “Right Elbow Lesions erythema” value was determined as 4; the “Right Elbow Lesions lesion severity” value stood at 4; the “Scalp Lesions erythema, lesion ranking” value is reported as 4.
